{"source": "patent US12691112B2", "about": "“FGFR tyrosine kinase inhibitors for the treatment of urothelial carcinoma” (Janssen Pharmaceutica NV, priority 2019, dated 2026)", "tested_on": "subjects with metastatic or surgically unresectable urothelial cancer", "key": {"[1]": {"settings": "all-causality, 6 mg continuous, n = 78"}}, "procedure": "Study treatment was administered on 28-day cycles. […] Patients were randomized 1:1 to 28-day cycles to the following 2 regimens until a regimen was selected for further study: Regimen 1 (10 mg once daily intermittent (7 days on/7 days); Regimen 2 (6 mg once daily continuous). Randomization was stratified according to performance status (0 to 1 vs. 2), hemoglobin value (<10 vs. ≥10 g per dl), FGFR alteration type (mutation vs. fusion), prior treatment status (chemotherapy-resistant vs. chemotherapy naïve), and disease distribution (presence or absence of visceral [liver, lung, bone]metastases). Starting dose selection was based on phase 1 efficacy and tolerability.\nBased on interim analysis and pharmacokinetic-pharmacodynamic modeling of serum phosphate levels, starting dose was increased to 8 mg per day continuous (Regimen 3). Thus, after interim analysis, this became a single-arm study. […] Treatment continued until disease progression or unacceptable adverse event(s) per investigator.\nSafety was evaluated based on clinical laboratory tests, physical exams, electrocardiograms, and ophthalmology examinations. Adverse events and abnormalities were assessed by investigator and graded per NCI CTCAE v.4.0\nProphylactic measures were taken to minimize risk of common adverse events related to FGFR inhibition. To reduce risk of hyperphosphatemia, a low-phosphate diet was recommended for all patients (600 to 800 mg of dietary phosphate intake per day). To reduce the risk of skin effects, the application of alcohol-free emollient moisturizing cream and avoidance of unnecessary exposure to sunlight, soap, perfumed products, and hot baths was recommended. Patients were asked to keep their fingers and toes clean and nails trimmed to reduce risk of nail effects.\nAdditional ophthalmology examinations were performed if clinically indicated.", "data": [{"smiles": "COc1cc(OC)cc(N(CCNC(C)C)c2ccc3ncc(-c4cnn(C)c4)nc3c2)c1", "note": "[erdafitinib, N-(3,5-dimethoxy-phenyl)-N′-(1-methylethyl)-N-[3-(1-methyl-1H-pyrazol-4-yl)quinoxalin-6-yl]ethane-1,2-diamine]", "values": [{"measurement": "Treatment-related Paronychia, grade 3", "setting": "8 mg continuous, n = 99", "value": "3 (3) no. (%)"}, {"measurement": "Treatment-related Stomatitis, any grade", "setting": "8 mg continuous, n = 99", "value": "54 (55) no. (%)"}, {"measurement": "Treatment-related Stomatitis, grade 1", "setting": "8 mg continuous, n = 99", "value": "19 (19) no. (%)"}, {"measurement": "Treatment-related Stomatitis, grade 2", "setting": "8 mg continuous, n = 99", "value": "26 (26) no. (%)"}, {"measurement": "Treatment-related Stomatitis, grade 3", "setting": "8 mg continuous, n = 99", "value": "9 (9) no. (%)"}, {"measurement": "Treatment-related Vision blurred, any grade", "setting": "8 mg continuous, n = 99", "value": "16 (16) no. (%)"}, {"measurement": "Treatment-related Vision blurred, grade 1", "setting": "8 mg continuous, n = 99", "value": "10 (10) no. (%)"}, {"measurement": "Treatment-related Vision blurred, grade 2", "setting": "8 mg continuous, n = 99", "value": "6 (6) no. (%)"}, {"measurement": "Treatment-related Vision blurred, grade 3", "setting": "8 mg continuous, n = 99", "value": "0 no. (%)"}, {"measurement": "Treatment-related Weight decreased, any grade", "setting": "8 mg continuous, n = 99", "value": "10 (10) no. (%)"}, {"measurement": "Treatment-related Weight decreased, grade 1", "setting": "8 mg continuous, n = 99", "value": "5 (5) no. (%)"}, {"measurement": "Treatment-related Weight decreased, grade 2", "setting": "8 mg continuous, n = 99", "value": "5 (5) no. (%)"}, {"measurement": "Treatment-related Weight decreased, grade 3", "setting": "8 mg continuous, n = 99", "value": "0 no. (%)"}, {"measurement": "some type of eye disorder, regardless of relation to treatment", "setting": "8 mg per day continuous", "value": 63, "unit": "%"}, {"measurement": "treatment-related CSR grade ≥3 events", "setting": "8 mg per day continuous", "value": 3, "unit": "%"}, {"measurement": "treatment-related central serous retinopathy (CSR)", "setting": "8 mg per day continuous", "value": 21, "unit": "%"}, {"measurement": "treatment-related dry skin", "setting": "8 mg per day continuous", "value": 32, "unit": "%"}, {"measurement": "treatment-related effects on the nails", "setting": "8 mg per day continuous", "value": 52, "unit": "%"}, {"measurement": "treatment-related effects on the skin", "setting": "8 mg per day continuous", "value": 49, "unit": "%"}, {"measurement": "treatment-related hand-foot syndrome", "setting": "8 mg per day continuous", "value": 22, "unit": "%"}, {"measurement": "treatment-related hyperphosphatemia", "setting": "8 mg per day continuous", "value": 73, "unit": "%"}, {"measurement": "treatment-related nail dystrophy", "setting": "8 mg per day continuous", "value": 16, "unit": "%"}, {"measurement": "treatment-related onycholysis", "setting": "8 mg per day continuous", "value": 16, "unit": "%"}, {"measurement": "patients with grade ≥3 treatment-emergent adverse events", "setting": "8 mg per day continuous group uptitrated to 9 mg per day", "value": 68, "unit": "%"}, {"measurement": "grade 1 or 2 events among patients with eye disorders", "setting": "8 mg per day continuous, patients with eye disorders (n=62)", "value": 84, "unit": "%"}, {"measurement": "Serious treatment-emergent: Dyspnea", "setting": "10 mg intermittent, n = 33", "value": "2 (6) no. (%)"}, {"measurement": "Serious treatment-emergent: Eye disorders", "setting": "10 mg intermittent, n = 33", "value": "1 (3) no. (%)"}, {"measurement": "Serious treatment-emergent: Gastrointestinal disorders", "setting": "10 mg intermittent, n = 33", "value": "2 (6) no. (%)"}, {"measurement": "Serious treatment-emergent: Infections and infestations", "setting": "10 mg intermittent, n = 33", "value": "2 (6) no. (%)"}, {"measurement": "Serious treatment-emergent: Metabolism and nutrition disorders", "setting": "10 mg intermittent, n = 33", "value": "1 (3) no. (%)"}, {"measurement": "Serious treatment-emergent: Nervous system disorders", "setting": "10 mg intermittent, n = 33", "value": "0 no. (%)"}, {"measurement": "Serious treatment-emergent: Renal and urinary disorders", "setting": "10 mg intermittent, n = 33", "value": "1 (3) no. (%)"}, {"measurement": "Serious treatment-emergent: Respiratory, thoracic, mediastinal disorders", "setting": "10 mg intermittent, n = 33", "value": "4 (12) no. (%)"}, {"measurement": "Serious treatment-emergent: Urinary tract infection", "setting": "10 mg intermittent, n = 33", "value": "0 no. (%)"}, {"measurement": "Serious treatment-emergent: Urosepsis", "setting": "10 mg intermittent, n = 33", "value": "0 no. (%)"}, {"measurement": "Total number of patients with serious treatment-emergent adverse events", "setting": "10 mg intermittent, n = 33", "value": "14 (42) no. (%)"}, {"measurement": "Hyperphosphatemia reported", "setting": "Regimen 3", "value": 77, "unit": "%"}, {"measurement": "hyperphosphatemia leading to dose reduction", "setting": "Regimen 3", "value": 9, "unit": "%"}, {"measurement": "hyperphosphatemia managed by dose interruption", "setting": "Regimen 3", "value": 23, "unit": "%"}, {"measurement": "patients discontinued due to treatment-emergent adverse events", "setting": "Regimen 3", "value": 13, "unit": "%"}, {"measurement": "patients reporting treatment-emergent adverse events", "setting": "Regimen 3", "value": "All patients"}, {"measurement": "patients who required dose reduction", "setting": "Regimen 3", "value": 56, "unit": "%"}, {"measurement": "patients with serious treatment-emergent adverse events", "setting": "Regimen 3", "value": 39, "unit": "%"}, {"measurement": "stomatitis leading to dose reduction", "setting": "Regimen 3", "value": 16, "unit": "%"}, {"measurement": "treatment-emergent adverse events grade 3 or 4", "setting": "Regimen 3", "value": 67, "unit": "%"}, {"measurement": "patients who required ≥1 dose reduction", "setting": "Regimen 3, among 41 patients uptitrated to 9 mg per day", "value": 59, "unit": "%"}, {"measurement": "central serious retinopathy events resolved", "setting": "all unresolved events grade 1 or 2", "value": "Seventy-six percent"}, {"measurement": "Abdominal pain, any grade", "setting": "[1]", "value": 14, "unit": "no."}, {"measurement": "Abdominal pain, grade 1", "setting": "[1]", "value": 7, "unit": "no."}, {"measurement": "Abdominal pain, grade 2", "setting": "[1]", "value": 5, "unit": "no."}, {"measurement": "Abdominal pain, grade ≥ 3", "setting": "[1]", "value": 2, "unit": "no."}, {"measurement": "Alanine aminotransferase increased, any grade", "setting": "[1]", "value": 9, "unit": "no."}, {"measurement": "Alanine aminotransferase increased, grade 1", "setting": "[1]", "value": 7, "unit": "no."}, {"measurement": "Alanine aminotransferase increased, grade 2", "setting": "[1]", "value": 2, "unit": "no."}, {"measurement": "Alanine aminotransferase increased, grade ≥ 3", "setting": "[1]", "value": 0, "unit": "no."}, {"measurement": "Alopecia, any grade", "setting": "[1]", "value": 10, "unit": "no."}, {"measurement": "Alopecia, grade 1", "setting": "[1]", "value": 9, "unit": "no."}, {"measurement": "Alopecia, grade 2", "setting": "[1]", "value": 1, "unit": "no."}, {"measurement": "Alopecia, grade ≥ 3", "setting": "[1]", "value": 0, "unit": "no."}, {"measurement": "Anemia, any grade", "setting": "[1]", "value": 13, "unit": "no."}, {"measurement": "Anemia, grade 1", "setting": "[1]", "value": 0, "unit": "no."}, {"measurement": "Anemia, grade 2", "setting": "[1]", "value": 8, "unit": "no."}, {"measurement": "Anemia, grade ≥ 3", "setting": "[1]", "value": 5, "unit": "no."}, {"measurement": "Arthralgia, any grade", "setting": "[1]", "value": 8, "unit": "no."}, {"measurement": "Arthralgia, grade 1", "setting": "[1]", "value": 5, "unit": "no."}, {"measurement": "Arthralgia, grade 2", "setting": "[1]", "value": 2, "unit": "no."}, {"measurement": "Arthralgia, grade ≥ 3", "setting": "[1]", "value": 1, "unit": "no."}, {"measurement": "Aspartate aminotransferase increased, any grade", "setting": "[1]", "value": 9, "unit": "no."}, {"measurement": "Aspartate aminotransferase increased, grade 1", "setting": "[1]", "value": 7, "unit": "no."}, {"measurement": "Aspartate aminotransferase increased, grade 2", "setting": "[1]", "value": 2, "unit": "no."}, {"measurement": "Aspartate aminotransferase increased, grade ≥ 3", "setting": "[1]", "value": 0, "unit": "no."}, {"measurement": "Asthenia, any grade", "setting": "[1]", "value": 18, "unit": "no."}, {"measurement": "Asthenia, grade 1", "setting": "[1]", "value": 5, "unit": "no."}, {"measurement": "Asthenia, grade 2", "setting": "[1]", "value": 4, "unit": "no."}, {"measurement": "Asthenia, grade ≥ 3", "setting": "[1]", "value": 9, "unit": "no."}, {"measurement": "Back pain, any grade", "setting": "[1]", "value": 11, "unit": "no."}, {"measurement": "Back pain, grade 1", "setting": "[1]", "value": 6, "unit": "no."}, {"measurement": "Back pain, grade 2", "setting": "[1]", "value": 3, "unit": "no."}, {"measurement": "Back pain, grade ≥ 3", "setting": "[1]", "value": 2, "unit": "no."}, {"measurement": "Blood creatinine increased, any grade", "setting": "[1]", "value": 6, "unit": "no."}, {"measurement": "Blood creatinine increased, grade 1", "setting": "[1]", "value": 3, "unit": "no."}, {"measurement": "Blood creatinine increased, grade 2", "setting": "[1]", "value": 3, "unit": "no."}, {"measurement": "Blood creatinine increased, grade ≥ 3", "setting": "[1]", "value": 0, "unit": "no."}, {"measurement": "Conjunctivitis, any grade", "setting": "[1]", "value": 7, "unit": "no."}, {"measurement": "Conjunctivitis, grade 1", "setting": "[1]", "value": 4, "unit": "no."}, {"measurement": "Conjunctivitis, grade 2", "setting": "[1]", "value": 2, "unit": "no."}]}]}
